# Experimental data published in PubChem BioAssay (NCI).
#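 48-hour exposure; five concentrations; linearly interpolated endpoints. Abbreviation: GI50, concentration required for 50% inhibition of growth. TGI is the concentration that stops growth completely.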
# Assays:
# Assay in all cases: growth of human tumour cells (NCI), 48 h
# [1] = tested on: SR leukemia
# [2] = tested on: OVCAR-5 ovarian
# [3] = tested on: NCI-H522 lung
# [4] = tested on: SNB-19 CNS
# [5] = tested on: BT-549 breast
# [6] = tested on: OVCAR-3 ovarian
# [7] = tested on: UO-31 renal
# [8] = tested on: HCT-116 colon
# [9] = tested on: NCI/ADR-RES ovarian
# [10] = tested on: K-562 leukemia
# [11] = tested on: HT29 colon
# [12] = tested on: SN12C renal
# [13] = tested on: OVCAR-8 ovarian
# [14] = tested on: SK-OV-3 ovarian
# [15] = tested on: UACC-62 melanoma
# [16] = tested on: MCF7 breast
# [17] = tested on: PC-3 prostate
# [18] = tested on: U251 CNS
# [19] = tested on: ACHN renal
# [20] = tested on: UACC-257 melanoma
# [21] = tested on: OVCAR-4 ovarian
# [22] = tested on: RXF 393 renal
# [23] = tested on: SF-295 CNS
# [24] = tested on: NCI-H226 lung
# [25] = tested on: KM12 colon
# [26] = tested on: SK-MEL-5 melanoma
# [27] = tested on: MDA-MB-435
# [28] = tested on: HL-60(TB) leukemia
smiles,measurement,setting,value
C/C(=N\NC(N)=S)c1nc2ccc(Cl)cc2[nH]1,GI50,[1],1.29 µM
same,TGI,[1],15.9 µM
same,GI50,[2],5.71 µM
same,TGI,[2],18.1 µM
same,GI50,[3],1.24 µM
same,TGI,[3],7.9 µM
same,GI50,[4],3.93 µM
same,TGI,[4],> 50 µM
same,GI50,[5],3.57 µM
same,TGI,[5],14.3 µM
same,GI50,[6],2.85 µM
same,TGI,[6],14.1 µM
same,GI50,[7],0.3 µM
same,TGI,[7],3.27 µM
same,GI50,[8],2.11 µM
same,TGI,[8],8.85 µM
same,GI50,[9],1.21 µM
same,TGI,[9],> 50 µM
same,GI50,[10],2.37 µM
same,TGI,[10],> 50 µM
same,GI50,[11],2.32 µM
same,TGI,[11],14 µM
same,GI50,[12],4.72 µM
same,TGI,[12],> 50 µM
same,GI50,[13],2.57 µM
same,TGI,[13],15.5 µM
same,GI50,[14],2.31 µM
same,TGI,[14],9.19 µM
same,GI50,[15],2.2 µM
same,TGI,[15],33.8 µM
same,GI50,[16],1.64 µM
same,TGI,[16],> 50 µM
same,GI50,[17],4.05 µM
same,TGI,[17],48.2 µM
same,GI50,[18],2.6 µM
same,TGI,[18],13 µM
same,GI50,[19],0.848 µM
same,TGI,[19],7.83 µM
same,GI50,[20],5.05 µM
same,TGI,[20],> 50 µM
same,GI50,[21],1.31 µM
same,TGI,[21],19.9 µM
same,GI50,[22],4.59 µM
same,TGI,[22],28.7 µM
same,GI50,[23],1.33 µM
same,TGI,[23],6.33 µM
same,GI50,[24],2.48 µM
same,TGI,[24],10.1 µM
same,GI50,[25],2.03 µM
same,TGI,[25],16.2 µM
same,GI50,[26],2.7 µM
same,TGI,[26],22.4 µM
same,GI50,[27],2.95 µM
same,TGI,[27],24.6 µM
same,GI50,[28],1.55 µM
same,TGI,[28],19.9 µM
